Each structure is given as a SMILES string. A value given as a limit tells only on which side of the number the result lay.

This test has as its target T1, HIV-integrase (Human immunodeficiency virus type 1 group M subtype B, UniProt P12497).
T1 construct: Recombinant integrase (0.26 ng) was incubated with the beads
As to the kind of experiment: HIV-Integrase Inhibition Activity (SPA bead integration assay with P33 labeled target DNA). In kind it is biochemical. The conditions noted are these: recombinant integrase, class symbols; read-out: in vitro activity. The essentials: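 Strand integration read as bead-proximity CPM after P33 target DNA (0.1 fmol) and inhibitor were added to washed integrase–substrate DNA complexes on SPA beads. Enzyme bound 90 min at 37° C; EDTA (10 mM final) terminated reaction; IC50 graded A/B/C.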
Turning to `Cc1cc(C(=O)NC23CCC(CC2)Cn2c3nc(C(=O)NCc3ccc(F)cc3)c(O)c2=O)no1` [Example 28, N-(4-Fluorobenzyl)-3-hydroxy-10-(((5-methyl-3-isoxazolyl)carbonyl)amino)-4-oxo-4,6,7,8,9,10-hexahydro-7,10-ethanopyrimido[1,2-a]azepine-2-carboxamide], the IC50 is below 0.01 µM.
As for `Cc1cc(CNC(=O)c2nc3n(c(=O)c2O)CC2CCC3(NC(=O)[C@H]3CCN(C(=O)c4cc(C)n(C)n4)C3)CC2)ccc1F` [Example 301, 7,10-Ethanopyrimido[1,2-a]azepine-2-carboxamide, 10-[[[(3S)-1-[(1,5-dimethyl-1H-pyrazol-3-yl)carbonyl]-3-pyrrolidinyl]carbonyl]amino]-N-[(4-fluoro-3-methylphenyl)methyl]-4,6,7,8,9,10-hexahydro-3-hydroxy-4-oxo-], the figure is 0.01 to 0.1 µM.
On to `Cn1nnc(C(=O)NC23CCC(CC2)Cn2c3nc(C(=O)NCc3ccc(F)cc3)c(O)c2=O)n1` [Example 250, 7,10-Ethanopyrimido[1,2-a]azepine-2-carboxamide, N-[(4-fluorophenyl)methyl]-4,6,7,8,9,10-hexahydro-3-hydroxy-10-[[(2-methyl-2H-tetrazol-5-yl)carbonyl]amino]-4-oxo-], for which the IC50 is below 0.01 µM.
The value for `NC(=S)NC12CCC(CC1)Cn1c2nc(C(=O)NCc2ccc(F)cc2)c(O)c1=O` [Example 333, 7,10-Ethanopyrimido[1,2-a]azepine-2-carboxamide, 10-[(aminothioxomethyl)amino]-N-[(4-fluorophenyl)methyl]-4,6,7,8,9,10-hexahydro-3-hydroxy-4-oxo-] was below 0.01 µM; that for `CN(C)C(=O)C(=O)NC12CCC(CC1)Cn1c2nc(C(=O)NCCc2ccc(Cl)cc2)c(O)c1=O` [Example 345] was 0.01 to 0.1 µM.
Regarding `Cc1cc(CNC(=O)c2nc3n(c(=O)c2O)CCC2CCC3(NC(=O)C(=O)N3CC[C@@H](F)C3)C2)ccc1F` (stereo partly drawn) [Example 216, 8,11-Methano-4H-pyrimido[1,2-a]azocine-2-carboxamide, N-[(4-fluoro-3-methylphenyl)methyl]-11-[[2-[(3R)-3-fluoro-1-pyrrolidinyl]-1,2-dioxoethyl]amino]-6,7,8,9,10,11-hexahydro-3-hydroxy-4-oxo-], the IC50 was below 0.01 µM.
As for `CN(C)C(=O)C(=O)NC12CCC(CC1)Cn1c2nc(C(=O)NCc2ccc(Cl)cc2Cl)c(O)c1=O` [Example 368], the figure is below 0.01 µM; as for `O=C(NC12CCC(CC1)Cn1c2nc(C(=O)NCc2ccc(F)cc2)c(O)c1=O)OCCO` [Example 260, Carbamic acid, [2-[[[(4-fluorophenyl)methyl]amino]carbonyl]-6,7,8,9-tetrahydro-3-hydroxy-4-oxo-7,10-ethanopyrimido[1,2-a]azepin-10(4H)-yl]-, 2-hydroxyethyl ester], below 0.01 µM; as for `O=C(NC12CCC(CC1)Cn1c2nc(C(=O)NCc2ccc(F)cc2)c(O)c1=O)c1ccnc(OCC(F)(F)F)c1` [Example 316, 7,10-Ethanopyrimido[1,2-a]azepine-2-carboxamide, N-[(4-fluorophenyl)methyl]-4,6,7,8,9,10-hexahydro-3-hydroxy-4-oxo-10-[[[2-(2,2,2-trifluoroethoxy)-4-pyridinyl]carbonyl]amino]-], below 0.01 µM.
The value for `COCC(=O)N1CCN(C(=O)C(=O)NC23CCC(CC2)Cn2c3nc(C(=O)NCc3ccc(F)cc3)c(O)c2=O)CC1` [Example 141, N-(4-Fluorobenzyl)-3-hydroxy-10-(((4-(methoxyacetyl)-1-piperazinyl)(oxo)acetyl)amino)-4-oxo-4,6,7,8,9,10-hexahydro-7,10-ethanopyrimido[1,2-a]azepine-2-carboxamide] was below 0.01 µM; that for `CO[C@@H]1C[C@@H](C(=O)NC23CCC(CC2)Cn2c3nc(C(=O)NCc3ccc(F)cc3)c(O)c2=O)N(C(C)=O)C1` [Example 273, 7,10-Ethanopyrimido[1,2-a]azepine-2-carboxamide, 10-[[[(2S,4R)-1-acetyl-4-methoxy-2-pyrrolidinyl]carbonyl]amino]-N-[(4-fluorophenyl)methyl]-4,6,7,8,9,10-hexahydro-3-hydroxy-4-oxo-] was below 0.01 µM.
As for `CN(C)C(=O)C(=O)N[C@H]1c2nc(C(=O)NCc3ccc(F)cc3)c(O)c(=O)n2C[C@H]2CC[C@]1(C)C2(C)C` [Example 183, N′-((7S,10R,11R)-2-((4-Fluorobenzyl)carbamoyl)-3-hydroxy-10,12,12-trimethyl-4-oxo-6,7,8,9,10,11-hexahydro-4H-7,10-methanopyrimido[1,2-a]azocin-11-yl)-N,N-dimethylethanediamide], the IC50 lay within 0.01 to 0.1 µM.
As for `Cc1cc(CNC(=O)c2nc3n(c(=O)c2O)CC[C@@H]2CC[C@@]3(NC(=O)C(=O)N(C)C)C2)ccc1F` [Example 415, Ethanediamide, N′-[(8S,11R)-2-[[[(4-fluoro-3-methylphenyl)methyl]amino]carbonyl-7,8,9,10-tetrahydro-3-hydroxy-4-oxo-8,11-methano-4H-pyrimido[1,2-a]azocin-1](6H)-yl]-N,N-dimethyl-], the IC50 was below 0.01 µM.
The value for `CN(C(=O)C(=O)NC12CCC(CC1)Cn1c2nc(C(=O)NCc2ccc(F)cc2)c(O)c1=O)C1CC1` [Example 82, N-Cyclopropyl-N′-(2-((4-fluorobenzyl)carbamoyl)-3-hydroxy-4-oxo-6,7,8,9-tetrahydro-7,10-ethanopyrimido[1,2-a]azepin-10(4H)-yl)-N-methylethanediamide] was below 0.01 µM.
In the case of `CCS(=O)(=O)N1CCCC1C(=O)NC12CCC(CC1)Cn1c2nc(C(=O)NCc2ccc(F)cc2)c(O)c1=O` (stereo not drawn) [Example 403], the IC50 was below 0.01 µM.
Regarding `CN/C(=N\C#N)NC12CCC(CC1)Cn1c2nc(C(=O)NCc2ccc(F)c(C)c2)c(O)c1=O` [Example 335, 7,10-Ethanopyrimido[1,2-a]azepine-2-carboxamide, 10-[[(1Z)-(cyanoamino)(methylamino)methylene]amino]-N-[(4-fluoro-3-methylphenyl)methyl]-4,6,7,8,9,10-hexahydro-3-hydroxy-4-oxo-], the IC50 was below 0.01 µM.
The value for `CN(C)C(=O)C(=O)NC12CCC(CC1)Cn1c2nc(C(=O)NCc2ccc(F)cc2-c2ncnn2C)c(O)c1=O` [Example 107, N′-(2-((4-Fluoro-2-(1-methyl-1H-1,2,4-triazol-5-yl)benzyl)carbamoyl)-3-hydroxy-4-oxo-6,7,8,9-tetrahydro-7,10-ethanopyrimido[1,2-a]azepin-10(4H)-yl)-N,N-dimethylethanediamide] was 0.01 to 0.1 µM.
As for `CN(C)C(=O)C(=O)NC12CCC(CC1)Cn1c2nc(C(=O)NCc2nc3ccccc3s2)c(O)c1=O` [Example 360], the figure is below 0.01 µM; as for `CN(C)C(=O)C(=O)NC12CCC(CC1)Cn1c2nc(C(=O)NCCc2cccc(Cl)c2)c(O)c1=O` [Example 353], below 0.01 µM.
The value for `C=C[C@H]1C[C@@]1(NC(C)=O)C(=O)NC12CCC(CC1)Cn1c2nc(C(=O)NCc2ccc(F)c(C)c2)c(O)c1=O` [Example 300, 7,10-Ethanopyrimido[1,2-a]azepine-2-carboxamide, 10-[[[(1S,2R)-1-(acetylamino)-2-ethenylcyclopropyl]carbonyl]amino]-N-[(4-fluoro-3-methylphenyl)methyl]-4,6,7,8,9,10-hexahydro-3-hydroxy-4-oxo-] was below 0.01 µM; that for `CO[C@H]1C[C@@H](C(=O)NC23CCC(CC2)Cn2c3nc(C(=O)NCc3ccc(F)c(C)c3)c(O)c2=O)N(C(=O)c2nccn2C)C1` [Example 298, 7,10-Ethanopyrimido[1,2-a]azepine-2-carboxamide, N-[(4-fluoro-3-methylphenyl)methyl]-4,6,7,8,9,10-hexahydro-3-hydroxy-10-[[[(2S,4S)-4-methoxy-1-[(1-methyl-1H-imidazol-2-yl)carbonyl]-2-pyrrolidinyl]carbonyl]amino]-4-oxo-] was below 0.01 µM; that for `COc1cnc(Cl)c2[nH]cc(C(=O)C(=O)NC34CCC(CC3)Cn3c4nc(C(=O)NCc4ccc(F)cc4)c(O)c3=O)c12` [Example 47, 10-(((7-Chloro-4-methoxy-1H-pyrrolo[2,3-c]pyridin-3-yl)(oxo)acetyl)amino)-N-(4-fluorobenzyl)-3-hydroxy-4-oxo-4,6,7,8,9,10-hexahydro-7,10-ethanopyrimido[1,2-a]azepine-2-carboxamide] was below 0.01 µM.
Turning to `CN(C)C(=O)C(=O)NC12CCC(CC1)Cn1c2nc(C(=O)NCc2ccc(F)c(C(F)F)c2)c(O)c1=O` [Example 124, N′-(2-((3-(Difluoromethyl)-4-fluorobenzyl)carbamoyl)-3-hydroxy-4-oxo-6,7,8,9-tetrahydro-7,10-ethanopyrimido[1,2-a]azepin-10(4H)-yl)-N,N-dimethylethanediamide], the IC50 is below 0.01 µM.
As for `Cc1cc(CNC(=O)c2nc3n(c(=O)c2O)CC2CCC3(NC(=O)c3ccccn3)CC2)ccc1F` [Example 313, 7,10-Ethanopyrimido[1,2-a]azepine-2-carboxamide, N-[(4-fluoro-3-methylphenyl)methyl]-4,6,7,8,9,10-hexahydro-3-hydroxy-4-oxo-10-[(2-pyridinylcarbonyl)amino]-], the IC50 was below 0.01 µM.
The value for `CS(=O)(=O)N1CCN(C(=O)C(=O)NC23CCC(CC2)Cn2c3nc(C(=O)NCc3ccc(F)cc3)c(O)c2=O)CC1` [Example 76, N-(4-Fluorobenzyl)-3-hydroxy-10-(((4-(methylsulfonyl)-1-piperazinyl)(oxo)acetyl)amino)-4-oxo-4,6,7,8,9,10-hexahydro-7,10-ethanopyrimido[1,2-a]azepine-2-carboxamide] was below 0.01 µM.
The value for `COCCN(C)C(=O)C(=O)NC12CCC(CC1)Cn1c2nc(C(=O)NCc2ccc(F)c(C)c2)c(O)c1=O` [Example 134, N′-(2-((4-Fluoro-3-methylbenzyl)carbamoyl)-3-hydroxy-4-oxo-6,7,8,9-tetrahydro-7,10-ethanopyrimido[1,2-a]azepin-10(4H)-yl)-N-(2-methoxyethyl)-N-methylethanediamide] was below 0.01 µM; that for `O=C(NCc1ccc(F)cc1)c1nc2n(c(=O)c1O)CC1CCC2(NC(=O)C2CCCN2C(=O)C2CCC2)CC1` (stereo not drawn) [Example 400] was below 0.01 µM.

For the origin of these results see patent publication US8129398B2 (priority 2008, dated 2012).
